# Experimental data reported in patent publication US20220336811A1, “CATHODE ACTIVE MATERIAL FOR SECONDARY BATTERY COMPRISING CHARGE TRANSFER COMPLEX AND METHOD FOR MANUFACTURING SAME” (SEOUL NATIONAL UNIVERSITY R&DB FOUNDATION, priority 2019, published 2022).
# Settings: 3 h
# Protocol: The synthesized cathode mixtures were rolled with a stainless steel (SUS) rod and cut to a size of 1.5 cm×1.5 cm to produce cathodes for secondary batteries.
# The cathodes produced in Embodiment 2 were put in 4 mL of a tetraethyleneglycol dimethylether (TEGDME) solvent, and stored in a 60° C. oven for 3 hours, and then solubilities of the cathode active materials for a solvent in an electrolyte were measured through ultraviolet-visible (UV-Vis) spectroscopy by using the used solvent.
row,solubility [mM],Compound
1,9.087,"c1ccc2nc3ccccc3nc2c1 [compound 1, phenazine]"
2,5.625,"N#CC(C#N)=c1ccc(=C(C#N)C#N)cc1 [compound 2, 7,7,8,8-tetracyanoquinodimethane]"
